# System: SH-SY5Y cells
# Assay: Cell viability dose-response screening, MTT
# Type: cell-based, human
# Description: Cell viability, following treatment with the compounds, was determined using the colorimetric MTT (3-(4,5-dimethylthiazol-2-yl)-2,5-diphenyltetrazolium bromide) assay. The tested compounds (5a1-3, 5b1-3, 5c1-3) were dissolved in DMSO to produce stock solutions of 25 mM and stored at −20 °C. A concentration screening was performed for 0.5 µM to 20 µM final concentrations to choose the highest nontoxic concentration. SH-SY5Y human neuroblastoma cell line (ATCC-CRL-2266) was cultured in Dulbecco’s modified Eagle’s medium (DMEM) (Gibco-Invitrogen, Life Technologies Ltd., Waltham, MA, USA) with heat-inactivated fetal calf serum (10%), penicillin (50 U/mL) and streptomycin (50 µg/mL) at 37 °C with 5% CO2. Cells were plated at 0.15 × 10^6 cells/mL one day prior to the start of the experiment. The cells were then incubated with the appropriate concentration of the compounds for 24 h. After the incubation period, the cells were washed once with PBS and incubated with 200 µL MTT (0.5 mg/mL) for 2 h at 37 °C with 5% CO2. During this period, cellular dehydrogenase successfully metabolized MTT into formazan, which was then solubilized using 200 µL of 0.04 M HCl/isopropanol. Absorbance was measured at 570 nm.
# The new RIV-IND hybrids were tested to determine their protective role in the toxicity induced by either Aβ1-42 peptides or iron/ascorbate. SH-SY5Y cells were incubated with a set of concentrations of each of the compounds and a dose–response curve was constructed to select the highest nontoxic concentration.
# Figure 3 Dose–response screening of RIV-IND compounds 5a1-3, 5b1-3 and 5c1-3 measured by MTT reduction ability on SH-SY5Y cells treated with different concentrations of the compounds for 24 h. Results are expressed relatively to untreated cells, with the mean ± standard error of the mean (SEM) derived from three independent experiments. * p < 0.05; ** p < 0.01; *** p < 0.001 compared to untreated cells. (The dot line indicates 100% cellular viability).
Compound,"highest nontoxic concentration (24 h, screening 0.5 µM to 20 µM) [µM]",highest nontoxic concentration (when used with Aβ1-42) [µM],highest nontoxic concentration (when used with iron/ascorbate) [µM]
"CCN(C)C(=O)Oc1cccc(NC(=O)c2cc3cccc(O)c3[nH]2)c1 [Compound 5a3, 3-(7-Hydroxy-1H-indole-2-carboxamido)phenyl ethyl(methyl)carbamate]",2.5,–,–
"CCN(C)C(=O)Oc1cccc(CNC(=O)c2cc3ccccc3[nH]2)c1 [Compound 5b1, 3-((1H-indole-2-carboxamido)methyl)phenyl ethylmethylcarbamate]",–,2.5,1

# — paper PMC10892719 (Pharmaceutics, 2024)
